Experimental data from patent US9914731B2, “Pyrazolo[1,5-a]pyridine derivatives and methods of their use” (Ignyta, Inc., priority 2013, dated 2018).

Target: recombinant human baculovirus-expressed cMET (Homo sapiens (Human), UniProt P08581)
Experiment: c-MET kinase assay (HTRF KinEASE)
Assay type: biochemical
Settings: average of two or more determinations; read-out: c-MET IC50

| Compound | IC50 [nM] |
| --- | --- |
| CCn1cc(C(=O)Nc2ccc(Oc3cc(-c4cnccn4)cn4nccc34)c(F)c2)c(=O)n(-c2ccc(F)cc2)c1=O [Example 134, 1-Ethyl-3-(4-fluoro-phenyl)-2,4-dioxo-1,2,3,4-tetrahydro-pyrimidine-5-carboxylic acid[3-fluoro-4-(6-pyrazin-2-yl-pyrazolo[1,5-a]pyridin-4-yloxy)-phenyl]-amide] | 10 to 100 |
| CCOCCn1cc(C(=O)Nc2ccc(Oc3cc(N4CCOCC4)cn4nccc34)c(F)c2)c(=O)n(-c2ccc(F)cc2)c1=O [Example 58, 1-(2-Ethoxy-ethyl)-3-(4-fluoro-phenyl)-2,4-dioxo-1,2,3,4-tetrahydro-pyrimidine-5-carboxylic acid [3-fluoro-4-(6-morpholin-4-yl-pyrazolo[1,5-a]pyridin-4-yloxy)-phenyl]-amide] | 10 to 100 |
| Cc1ccc(C(=O)Nc2ccc(Oc3cc(Nc4ccc(F)cn4)cn4nccc34)c(F)c2)c(=O)n1-c1ccc(F)cc1 [Example 83, 1-(4-Fluoro-phenyl)-6-methyl-2-oxo-1,2-dihydro-pyridine-3-carboxylic acid {3-fluoro-4-[6-(5-fluoro-pyridin-2-ylamino)-pyrazolo[1,5-a]pyridin-4-yloxy]-phenyl}-amide] | < 10 |
| O=C(Nc1ccc(Oc2cc(C3CCOCC3)cn3nccc23)c(F)c1)c1cccn(-c2ccc(F)cc2)c1=O [Example 47, 1-(4-Fluoro-phenyl)-2-oxo-1,2-dihydro-pyridine-3-carboxylic acid{3-fluoro-4-[6-(tetrahydro-pyran-4-yl)-pyrazolo[1,5-a]pyridin-4-yloxy]-phenyl}-amide] | < 10 |
| COc1cc(Oc2ccc(NC(=O)c3cccn(-c4ccc(F)cc4)c3=O)cc2F)c2ccnn2c1 [Example 22, 1-(4-Fluoro-phenyl)-2-oxo-1,2-dihydro-pyridine-3-carboxylic acid [3-fluoro-4-(6-methoxy-pyrazolo[1,5-a]pyridin-4-yloxy)-phenyl]-amide] | 101 to 1000 |
| O=C(Nc1ccc(Oc2cc(-c3cncs3)cn3nccc23)c(F)c1)c1cccn(-c2ccc(F)cc2)c1=O [Example 105, 1-(4-Fluoro-phenyl)-2-oxo-1,2-dihydro-pyridine-3-carboxylic acid[3-fluoro-4-(6-thiazol-5-yl-pyrazolo[1,5-a]pyridin-4-yloxy)-phenyl]-amide] | < 10 |
| CCn1cc(C(=O)Nc2ccc(Oc3cc(-c4cccc(C)n4)cn4nccc34)c(F)c2)c(=O)n(-c2ccc(F)cc2)c1=O [Example 136, 1-Ethyl-3-(4-fluoro-phenyl)-2,4-dioxo-1,2,3,4-tetrahydro-pyrimidine-5-carboxylic acid{3-fluoro-4-[6-(6-methyl-pyridin-2-yl)-pyrazolo[1,5-a]pyridin-4-yloxy]-phenyl}-amide] | 10 to 100 |
| Cn1cnc(-c2cc(Oc3ccc(NS(=O)(=O)c4ccc(F)cc4)cc3F)c3ccnn3c2)c1 [Example 153, 4-Fluoro-N-{3-fluoro-4-[6-(1-methyl-1H-imidazol-4-yl)-pyrazolo[1,5-a]pyridin-4-yloxy]-phenyl}-benzenesulfonamide] | 1000 to 10000 |
| O=C(Nc1ccc(Oc2cccn3nccc23)c(F)c1)c1cccn(-c2ccc(F)cc2)c1=O [Example 4, 1-(4-Fluoro-phenyl)-2-oxo-1,2-dihydro-pyridine-3-carboxylic acid [3-fluoro-4-(pyrazolo[1,5-a]pyridin-4-yloxy)-phenyl]-amide] | < 10 |
| CC(C)n1cc(C(=O)Nc2ccc(Oc3cc(-c4cnccn4)cn4nccc34)c(F)c2)c(=O)n(-c2ccc(F)cc2)c1=O [Example 135, 3-(4-Fluoro-phenyl)-1-isopropyl-2,4-dioxo-1,2,3,4-tetrahydro-pyrimidine-5-carboxylic acid[3-fluoro-4-(6-pyrazin-2-yl-pyrazolo[1,5-a]pyridin-4-yloxy)-phenyl]-amide] | 10 to 100 |
| O=C(Nc1ccc(Oc2cc(Nc3ccccn3)cn3nccc23)c(F)c1)c1cccn(-c2ccc(F)cc2)c1=O [Example 81, 1-(4-Fluoro-phenyl)-2-oxo-1,2-dihydro-pyridine-3-carboxylic acid{3-fluoro-4-[6-(pyridin-2-ylamino)-pyrazolo[1,5-a]pyridin-4-yloxy]-phenyl}-amide] | < 10 |
| CCn1cc(C(=O)Nc2ccc(Oc3cc(-c4cn(C)cn4)cn4nccc34)c(O)c2)c(=O)n(-c2ccc(F)cc2)c1=O [Example 120, 1-Ethyl-3-(4-fluoro-phenyl)-2,4-dioxo-1,2,3,4-tetrahydro-pyrimidine-5-carboxylic acid{3-hydroxy-4-[6-(1-methyl-1H-imidazol-4-yl)-pyrazolo[1,5-a]pyridin-4-yloxy]-phenyl}-amide] | 10 to 100 |
| Cc1noc(C)c1-c1cc(Oc2ccc(NC(=O)c3cccn(-c4ccc(F)cc4)c3=O)cc2F)c2ccnn2c1 [Example 48, 1-(4-Fluoro-phenyl)-2-oxo-1,2-dihydro-pyridine-3-carboxylic acid{4-[6-(3,5-dimethyl-isoxazol-4-yl)-pyrazolo[1,5-a]pyridin-4-yloxy]-3-fluoro-phenyl}-amide] | < 10 |
| O=C(Nc1ccc(Oc2cccn3nccc23)c(F)c1)c1cccn(Cc2cccc(F)c2)c1=O [Example 9, 1-(3-Fluoro-benzyl)-2-oxo-1,2-dihydro-pyridine-3-carboxylic acid [3-fluoro-4-(pyrazolo[1,5-a]pyridin-4-yloxy)-phenyl]-amide] | 101 to 1000 |
| CCn1cc(C(=O)Nc2ccc(Oc3cc(-c4cn(C)cn4)cn4nccc34)c(C(F)(F)F)c2)c(=O)n(-c2ccc(F)cc2)c1=O [Example 125, 1-Ethyl-3-(4-fluoro-phenyl)-2,4-dioxo-1,2,3,4-tetrahydro-pyrimidine-5-carboxylic acid {4-[6-(1-methyl-1H-imidazol-4-yl)-pyrazolo[1,5-a]pyridin-4-yloxy]-3-trifluoromethyl-phenyl}-amide] | < 10 |
| O=C(Nc1ccc(Oc2cc(Br)cn3nccc23)c(F)c1)c1cccn(-c2ccc(F)cc2)c1=O [Example 24, (4-Fluoro-phenyl)-2-oxo-1,2-dihydro-pyridine-3-carboxylic acid [4-(6-bromo-pyrazolo[1,5-a]pyridin-4-yloxy)-3-fluoro-phenyl]-amide] | < 10 |
| Cc1cccc(-c2cc(Oc3ccc(NC(=O)c4cn(C(C)C)c(=O)n(-c5ccc(F)cc5)c4=O)cc3F)c3ccnn3c2)n1 [Example 137, 3-(4-Fluoro-phenyl)-1-isopropyl-2,4-dioxo-1,2,3,4-tetrahydro-pyrimidine-5-carboxylic acid{3-fluoro-4-[6-(6-methyl-pyridin-2-yl)-pyrazolo[1,5-a]pyridin-4-yloxy]-phenyl}-amide] | 10 to 100 |
| CC(=O)Nc1cc(Oc2ccc(NC(=O)c3cn(C(C)C)c(=O)n(-c4ccc(F)cc4)c3=O)cc2F)c2ccnn2c1 [Example 143, 3-(4-Fluoro-phenyl)-1-isopropyl-2,4-dioxo-1,2,3,4-tetrahydro-pyrimidine-5-carboxylic acid[4-(6-acetylamino-pyrazolo[1,5-a]pyridin-4-yloxy)-3-fluoro-phenyl]-amide] | < 10 |
| O=C(Nc1ccc(Oc2cc(-c3cnsc3)cn3nccc23)c(F)c1)c1cccn(-c2ccc(F)cc2)c1=O [Example 53, 1-(4-Fluoro-phenyl)-2-oxo-1,2-dihydro-pyridine-3-carboxylic acid[3-fluoro-4-(6-isothiazol-4-yl-pyrazolo[1,5-a]pyridin-4-yloxy)-phenyl]-amide] | < 10 |
| CCOc1ccn(-c2ccc(F)cc2)c(=O)c1C(=O)Nc1ccc(Oc2cc(-c3cn(C)cn3)cn3nccc23)c(F)c1 [Example 112, 4-Ethoxy-1-(4-fluoro-phenyl)-2-oxo-1,2-dihydro-pyridine-3-carboxylic acid {3-fluoro-4-[6-(1-methyl-1H-imidazol-4-yl)-pyrazolo[1,5-a]pyridin-4-yloxy]-phenyl}-amide] | < 10 |
| O=C(Nc1ccc(Oc2cc(N3CCCC3=O)cn3nccc23)c(F)c1)c1cccn(-c2ccc(F)cc2)c1=O [Example 76, 1-(4-Fluoro-phenyl)-2-oxo-1,2-dihydro-pyridine-3-carboxylic acid{3-fluoro-4-[6-(2-oxo-pyrrolidin-1-yl)-pyrazolo[1,5-a]pyridin-4-yloxy]-phenyl}-amide] | < 10 |
| Cc1ccc(C(=O)Nc2ccc(Oc3cc(-c4ncco4)cn4nccc34)c(F)c2)c(=O)n1-c1ccc(F)cc1 [Example 98, 1-(4-Fluoro-phenyl)-6-methyl-2-oxo-1,2-dihydro-pyridine-3-carboxylic acid [3-fluoro-4-(6-oxazol-2-yl-pyrazolo[1,5-a]pyridin-4-yloxy)-phenyl]-amide] | < 10 |
| CC(C)n1cc(C(=O)Nc2ccc(Oc3cc(Nc4ccccn4)cn4nccc34)c(F)c2)c(=O)n(-c2ccc(F)cc2)c1=O [Example 87, 3-(4-Fluoro-phenyl)-1-isopropyl-2,4-dioxo-1,2,3,4-tetrahydro-pyrimidine-5-carboxylic acid{3-fluoro-4-[6-(pyridin-2-ylamino)-pyrazolo[1,5-a]pyridin-4-yloxy]-phenyl}-amide] | 10 to 100 |
| CC(C)n1cc(C(=O)Nc2ccc(Oc3cc(-c4cscn4)cn4nccc34)c(F)c2)c(=O)n(-c2ccc(F)cc2)c1=O [Example 106, 3-(4-Fluoro-phenyl)-1-isopropyl-2,4-dioxo-1,2,3,4-tetrahydro-pyrimidine-5-carboxylic acid[3-fluoro-4-(6-thiazol-4-yl-pyrazolo[1,5-a]pyridin-4-yloxy)-phenyl]-amide] | < 10 |
| O=C(Nc1ccc(Oc2cc(Nc3ccccc3)cn3nccc23)c(F)c1)c1cccn(-c2ccc(F)cc2)c1=O [Example 80, 1-(4-Fluoro-phenyl)-2-oxo-1,2-dihydro-pyridine-3-carboxylic acid[3-fluoro-4-(6-phenylamino-pyrazolo[1,5-a]pyridin-4-yloxy)-phenyl]-amide] | < 10 |
| 1-Methyl-5-trifluoromethyl-1H-pyrazole-4-carboxylic acid [4-(pyrazolo[1, 5-a]pyridin-4-yloxy)-phenyl]-amide [Example 17] | 1000 to 10000 |

Same assay, conditions: read-out: c-MET IC50

| Compound | IC50 [nM] |
| --- | --- |
| CC(C)n1cc(C(=O)Nc2ccc(Oc3cc(-c4ncco4)cn4nccc34)c(F)c2)c(=O)n(-c2ccc(F)cc2)c1=O [Example 99, 3-(4-Fluoro-phenyl)-1-isopropyl-2,4-dioxo-1,2,3,4-tetrahydro-pyrimidine-5-carboxylic acid[3-fluoro-4-(6-oxazol-2-yl-pyrazolo[1,5-a]pyridin-4-yloxy)-phenyl]-amide] | < 10 |
